Assay results taken from US5705504A, “Piperidine derivatives with PAF antagonist activity” (J. Uriach & Cia, S.A., priority 1994, dated 1998).
pIC50: −log10 of the molar value.

How the values were obtained:
PAF-induced Hypotension = test: Inhibition of PAF-induced Hypotension in Normotensive Rats; format: in vivo, male Sprague-Dawley rats; conditions: anesthetized normotensive rats, i.v. 3 min. before PAF (0.5 μg/Kg), dose inhibiting hypotension by 50%; for ED50: Rattus norvegicus, iv, 0.05 h, read-out: ID50 (the source's name)
Protocol: Inhibition of PAF-induced Hypotension in Normotensive Rats.
Male Sprague-Dawley rats, weighing 180-220 g, were anesthetized with sodium pentobarbital (50 mg/Kg i.p.). Blood pressure was recorded from the left carotid artery using a Statham pressure transducer coupled to a Beckman R611 recorder. Right and left fernoral veins were catheterized to inject test compounds and PAF (0.5 μg/Kg). Test compounds were administered by intravenous injection (1 mL/Kg, dissolved in saline) 3 min. before PAF. Blood pressure was monitored and percent inhibition of PAF-induced hypotension with respect to controls was calculated.

[1] = test system: Platelet Aggregation Induced by PAF (platelet rich plasma); test: Inhibition of Platelet Aggregation Induced by PAF; format: cell-based, male New Zealand rabbits; conditions: rabbit platelet rich plasma, aggregation induced by C18-PAF (15 nM)
Protocol: Inhibition of Platelet Aggregation Induced by PAF.
Platelet rich plasma (PRP) was prepared by centrifuging the blood at 250 xg for 10 min. at 4° C. The PRP was diluted with platelet-poor plasma (PPP) obtained by further centrifuging at 3000 xg for 10 min. The platelet count was adjusted to 3×10^5cells/mm^3.

**Q.** `Cc1nc2cnccc2n1CC1CCN(C(=O)CC(c2ccccc2)c2ccccc2)CC1` [Compound 1, 1-[[1-(3,3-Diphenylpropionyl)-4-piperidyl]methyl]-1H-2-methylimidazo[4,5-c]pyridine] was tested. Which ED50 (PAF-induced Hypotension) did it give?
**A.** 0.0086 mg/kg

**Q.** And the pIC50 ([1]; Oryctolagus cuniculus)?
**A.** 8.12

**Q.** `Cc1nc2cnccc2n1CC1CCN(C(=O)CC(C)(C)c2ccc(N)cc2)CC1` [Compound 44, 1-[[1-[3-(4-Aminophenyl)-3-methylbutanoyl]-4-piperidyl]methyl]-1H-2-methylimidazo[4,5-c]pyridine] was tested. Which pIC50 ([1]; Oryctolagus cuniculus) did it give?
**A.** 7.72

**Q.** How did the pIC50 ([1]; Oryctolagus cuniculus) turn out when `CCOC(=O)[C@@H](NC(=O)N1CCC(Cn2c(C)nc3cnccc32)CC1)c1ccccc1` [Compound 39, (S)-1-[[1-[[N-(1-Ethoxycarbonyl-1-phenylmethyl)amino]carbonyl]-4-piperidyl]methyl]-1H-2-methylimidazo[4,5-c]pyridine] was run?
**A.** 7.80

**Q.** `Cc1nc2cnccc2n1CC1CCN(C(=O)/C=C(\c2ccccc2)c2ccc(N)cc2)CC1` [Compound 17b, trans-1-[[1-[3-(4-Aminophenyl)-3-phenylpropenoyl]-4-piperidyl]methyl]-1H-2-methylimidazo[4,5-c]pyridine] was tested. Which ID50 (PAF-induced Hypotension) did it give?
**A.** 0.01 to 0.025 mg/kg

**Q.** And the pIC50 [1]?
**A.** 8.30

**Q.** With `Cc1nc2cnccc2n1CC1CCN(C(=O)CC(O)(c2ccccc2)C(F)(F)F)CC1` (stereo not drawn) [Compound 47] as the compound, how does the ED50 (PAF-induced Hypotension) read?
**A.** 0.013 mg/kg

**Q.** What about the pIC50 ([1]; Oryctolagus cuniculus) of the same compound?
**A.** 7.44

**Q.** `Cc1nc2cnccc2n1CC1CCN(C(=O)CC(C)c2ccc(N)cc2)CC1` (stereo not drawn) [Compound 23, 1-[[1-[3-(4-Aminophenyl)butanoyl]-4-piperidyl]methyl]-1H-2-methylimidazo[4,5-c]pyridine] was tested. Which pIC50 ([1]; Oryctolagus cuniculus) did it give?
**A.** 7.96

**Q.** With `Cc1nc2cnccc2n1CC1CCN(S(=O)(=O)CC(C)(C)c2ccccc2)CC1` [Compound 61, 1-[[1-[(2-Methyl-2-phenylpropyl)sulfonyl]-4-piperidyl]methyl]-1H-2-methylimidazo[4,5-c]pyridine] as the compound, how does the pIC50 ([1]; Oryctolagus cuniculus) read?
**A.** 8.21

**Q.** Which ED50 (PAF-induced Hypotension) does the source give for `CCOC[C@@H](NC(=O)N1CCC(Cn2c(C)nc3cnccc32)CC1)c1ccccc1` [Compound 60, (S)-1-[[1-[(2-Ethoxy-1-phenylethylamino)carbonyl]-4opiperidyl]methyl]-1H-2-methylimidazo[4,5-c]pyridine] here?
**A.** 0.019 mg/kg

**Q.** What about the pIC50 ([1]; Oryctolagus cuniculus) of the same compound?
**A.** 7.77

**Q.** `Cc1nc2cnccc2n1CC1CCN(C(=O)N[C@H](C)c2ccccc2)CC1` [Compound 50, (R)-1-[[1-[(1-Phenylethylamino)carbonyl]-4-piperidyl]methyl]-1H-2-methylimidazo[4,5-c]pyridine] was tested. Which ED50 (PAF-induced Hypotension) did it give?
**A.** 0.017 mg/kg

**Q.** And the pIC50 ([1]; Oryctolagus cuniculus)?
**A.** 7.89

**Q.** For `Cc1nc2cnccc2n1CC1CCN(C(=O)/C=C(/c2ccccc2)c2ccc(N)cc2)CC1` [Compound 17a, cis-1-[[1-[3-(4-Aminophenyl)-3-phenylpropenoyl]-4-piperidyl]methyl]-1H-2-methylimidazo[4,5-c]pyridine], which ID50 (PAF-induced Hypotension) is on record?
**A.** 0.029 mg/kg

**Q.** What about the pIC50 [1] of the same compound?
**A.** 7.74

**Q.** `Cc1nc2cnccc2n1CC1CCN(C(=O)CC(C)(C)c2ccccc2)CC1` [Compound 41, 1-[[1-(3-Methyl-3-phenylbutanoyl)-4-piperidyl]methyl]-1H-2-methylimidazo[4,5-c]pyridine] was tested. Which ED50 (PAF-induced Hypotension) did it give?
**A.** 0.012 mg/kg

**Q.** And the pIC50 ([1]; Oryctolagus cuniculus)?
**A.** 8.17

**Q.** How did the ED50 (PAF-induced Hypotension) turn out when `Cc1nc2cnccc2n1CC1CCN(C(=O)OCC2(c3ccccc3)CC2)CC1` [Compound 70, 1-[[1-[[(1-Phenyl-1-cyclopropyl)methoxy]carbonyl]-4-piperidyl]methyl]-1H-2-methylimidazo[4,5-c]pyridine] was run?
**A.** 0.014 mg/kg

**Q.** What about the pIC50 ([1]; Oryctolagus cuniculus) of the same compound?
**A.** 7.47

**Q.** `CCCC(CC(=O)N1CCC(Cn2c(C)nc3cnccc32)CC1)c1ccccc1` (stereo not drawn) [Compound 32, 1-[[1-(3-Phenylhexanoyl)-4-piperidyl]methyl]-1H-2-methylimidazo[4,5-c]pyridine] was tested. Which ED50 (PAF-induced Hypotension) did it give?
**A.** 0.0079 mg/kg

**Q.** And the pIC50 ([1]; Oryctolagus cuniculus)?
**A.** 7.96

**Q.** Which ED50 (PAF-induced Hypotension) does the source give for `Cc1nc2cnccc2n1CC1CCN(C(=O)C=C(c2ccccc2)c2cccc(N)c2)CC1` [Compound 30, cis and trans-1-[[1-[3-(3-Aminophenyl)-3-phenylpropenoyl]-4-piperidyl]methyl]-1H-2-methylimidazo[4,5-c]pyridine] here?
**A.** 0.015 mg/kg

**Q.** How did the ED50 (PAF-induced Hypotension) turn out when `Cc1nc2cnccc2n1CC1CCN(C(=O)NC2(c3ccccc3)CC2)CC1` [Compound 59, 1-[[1-[(1-Phenyl-1-cyclopropylamino)carbonyl]-4-piperidyl]methyl]-1H-2-methylimidazo[4,5-c]pyridine] was run?
**A.** 0.021 mg/kg

**Q.** And the pIC50 ([1]; Oryctolagus cuniculus)?
**A.** 7.77

**Q.** `Cc1nc2cnccc2n1CC1CCN(C(=O)C=C(c2ccccc2)c2ccc([N+](=O)[O-])cc2)CC1` [Compound 16, cis and trans-1-[[1-[3-(4-Nitrophenyl)-3-phenylpropenoyl]-4-piperidyl]methyl]-1H-2-methylimidazo[4,5-c]pyridine] was tested. Which pIC50 ([1]; Oryctolagus cuniculus) did it give?
**A.** 8.04

**Q.** Which ED50 (PAF-induced Hypotension) does the source give for `Cc1nc2cnccc2n1CC1CCN(C(=O)CC(C)(O)c2ccccc2)CC1` (stereo not drawn) [Compound 21, 1-[[1-(3-Hydroxy-3-phenylbutanoyl)-4-piperidyl]methyl]-1H-2-methylimidazo[4,5-c]pyridine] here?
**A.** 0.043 mg/kg

**Q.** What about the pIC50 ([1]; Oryctolagus cuniculus) of the same compound?
**A.** 8.16

**Q.** What does the source list for `Cc1nc2cnccc2n1CC1CCN(C(=O)CC(C)c2ccccc2)CC1` (stereo not drawn) [Compound 40, 1-[[1-(3-Phenylbutanoyl)-4-piperidyl]methyl]-1H-2-methylimidazo[4,5-c]pyridine]?
**A.** ED50 (PAF-induced Hypotension): 0.033 mg/kg; pIC50 ([1]; Oryctolagus cuniculus): 7.92
